Here are results for five compounds from patent US20260176320A1, “MODULATORS OF G-PROTEIN COUPLED RECEPTORS” (priority 2018, published 2026).

Broadly, the EC50 is the concentration at which the effect is half-maximal. The low end stands for higher potency in that assay, the high end for lower potency in that assay. For orientation: Emax means the size of the effect at its maximum, as opposed to the concentration needed.

In experiment [1] the target is T1, GIP-R (Homo sapiens, UniProt P48546).
T1 sequence (P48546 22-466): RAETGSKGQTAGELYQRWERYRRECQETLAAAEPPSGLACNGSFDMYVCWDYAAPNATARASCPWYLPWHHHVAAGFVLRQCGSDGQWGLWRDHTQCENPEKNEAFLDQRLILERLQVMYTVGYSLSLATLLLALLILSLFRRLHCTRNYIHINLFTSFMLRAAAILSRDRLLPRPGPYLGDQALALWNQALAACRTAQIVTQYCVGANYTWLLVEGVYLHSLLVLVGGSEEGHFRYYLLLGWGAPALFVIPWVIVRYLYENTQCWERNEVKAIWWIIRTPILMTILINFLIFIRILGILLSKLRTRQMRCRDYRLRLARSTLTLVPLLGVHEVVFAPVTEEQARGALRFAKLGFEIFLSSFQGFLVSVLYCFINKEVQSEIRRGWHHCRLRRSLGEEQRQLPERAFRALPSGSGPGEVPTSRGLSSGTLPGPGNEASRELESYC
The experiment is described as follows: HitHunter cAMP assay (GIP-R). It is filed as cell-based. As to conditions: cAMP; for EC50: EC50 GIP-R/nM; for Emax: read-out: (Emax) GIP-R. The gist of the method: (§1)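 Suspension cells expressing each receptor (10,000 per well) in HBSS with 10 mM HEPES, 625 μM IBMX and 0.2% BSA were treated with a 22-point 2-fold agonist series in duplicate for 30 minutes at room temperature. cAMP was detected by antibody immunocompetition with luminescence read after overnight incubation.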
For orientation: Cyclic AMP is a second messenger, typically raised through Gs and lowered through Gi signalling.

The target in experiment [2] is GLP-1R (Homo sapiens, UniProt P43220). The experiment can be described thus: HitHunter cAMP assay (GLP-1R). It is filed as cell-based. As to conditions: cAMP; for EC50: EC50 GLP-1R/nM; for Emax: read-out: (Emax) GLP-1R. The procedure, abridged: as §1
Chain of GLP-1R (P43220 24-463): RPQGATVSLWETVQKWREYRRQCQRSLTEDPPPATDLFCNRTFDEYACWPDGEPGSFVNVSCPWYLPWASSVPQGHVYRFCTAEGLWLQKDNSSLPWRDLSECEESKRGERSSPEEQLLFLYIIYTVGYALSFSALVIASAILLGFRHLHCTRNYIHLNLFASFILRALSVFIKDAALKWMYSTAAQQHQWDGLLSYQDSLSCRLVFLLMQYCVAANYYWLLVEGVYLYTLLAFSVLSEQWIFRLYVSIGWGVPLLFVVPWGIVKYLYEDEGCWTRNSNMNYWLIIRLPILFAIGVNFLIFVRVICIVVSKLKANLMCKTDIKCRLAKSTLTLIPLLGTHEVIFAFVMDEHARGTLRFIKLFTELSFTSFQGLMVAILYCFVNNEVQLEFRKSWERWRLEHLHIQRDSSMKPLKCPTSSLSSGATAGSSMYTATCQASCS

Read-outs that look alike come from different tables or passages of the source.

With `CCCCCCCCCCCCCCCC(=O)N[C@@H](CCC(=O)NCCCC[C@H](NC(=O)[C@H](CO)NC(=O)[C@@H]1CCCN1C(=O)[C@@H]1CCCN1C(=O)[C@@H]1CCCN1C(=O)[C@H](C)NC(=O)CNC(=O)[C@H](CO)NC(=O)[C@H](CO)NC(=O)[C@@H]1CCCN1C(=O)CNC(=O)CNC(=O)[C@H](C)NC(=O)[C@H](CC(C)C)NC(=O)[C@H](CC(C)C)NC(=O)[C@H](Cc1c[nH]c2ccccc12)NC(=O)[C@H](CC(N)=O)NC(=O)[C@@H](NC(=O)[C@H](Cc1ccccc1)NC(=O)[C@H](CCC(=O)O)NC(=O)C(C)(C)NC(=O)[C@H](C)NC(=O)[C@H](C)NC(=O)[C@H](CCC(N)=O)NC(=O)[C@H](CCCCN)NC(=O)[C@H](CC(=O)O)NC(=O)[C@H](CC(C)C)NC(=O)[C@H](Cc1ccc(O)cc1)NC(=O)[C@@H](NC(=O)[C@H](CO)NC(=O)[C@H](Cc1ccc(O)cc1)NC(=O)[C@H](CC(=O)O)NC(=O)[C@H](CO)NC(=O)[C@@H](NC(=O)[C@H](Cc1ccccc1)NC(=O)[C@@H](NC(=O)CNC(=O)[C@H](CCC(=O)O)NC(=O)CSCC(=O)NCCN1C(=O)C[C@@H](C)C1=O)[C@@H](C)O)[C@@H](C)O)[C@@H](C)CC)C(C)C)C(N)=O)C(=O)O` [Compound 89], the EC50 in experiment [1] (Table 3) is 0.1 to 1 nM; in experiment [1] (Table 3A), 0.1 to 1 nM; in experiment [2] (Table 3), 1 to 10 nM; in experiment [2] (Table 3A), 1 to 10 nM. The Emax in experiment [1] (Table 3) was found to be 81%; in experiment [1] (Table 3A), 81%; in experiment [2] (Table 3), 108%; in experiment [2] (Table 3A), 108%.
In the case of `CCCCCCCCCCCCCCCC(=O)N[C@@H](CCC(=O)NCCCC[C@H](NC(=O)[C@H](CO)NC(=O)[C@@H]1CCCN1C(=O)[C@@H]1CCCN1C(=O)[C@@H]1CCCN1C(=O)[C@H](C)NC(=O)CNC(=O)[C@H](CO)NC(=O)[C@H](CO)NC(=O)[C@@H]1CCCN1C(=O)CNC(=O)CNC(=O)[C@H](C)NC(=O)[C@H](CC(C)C)NC(=O)[C@H](CC(C)C)NC(=O)[C@H](Cc1c[nH]c2ccccc12)NC(=O)[C@H](CC(N)=O)NC(=O)[C@@H](NC(=O)[C@H](Cc1ccccc1)NC(=O)[C@H](CCC(=O)O)NC(=O)C(C)(C)NC(=O)[C@H](C)NC(=O)[C@H](C)NC(=O)[C@H](CCC(N)=O)NC(=O)[C@H](CCCCN)NC(=O)[C@H](CC(=O)O)NC(=O)[C@H](CC(C)C)NC(=O)[C@H](Cc1ccc(O)cc1)NC(=O)[C@@H](NC(=O)[C@H](CO)NC(=O)[C@H](Cc1ccc(O)cc1)NC(=O)[C@H](CC(=O)O)NC(=O)[C@H](CO)NC(=O)[C@@H](NC(=O)[C@H](Cc1ccccc1)NC(=O)[C@@H](NC(=O)CNC(=O)[C@H](CCC(=O)O)NC(=O)CSCC(=O)NCCN1C(=O)C2=C(CCCC2)C1=O)[C@@H](C)O)[C@@H](C)O)[C@@H](C)CC)C(C)C)C(N)=O)C(=O)O` [Compound 100], the EC50 in experiment [1] (Table 3) lay within 1 to 10 nM; in experiment [1] (Table 3A), 1 to 10 nM; in experiment [2] (Table 3), 10 to 100 nM; in experiment [2] (Table 3A), 10 to 100 nM. Moreover, the Emax in experiment [1] (Table 3) came out at 100%; in experiment [1] (Table 3A), 100%; in experiment [2] (Table 3), 95%; in experiment [2] (Table 3A), 95%.
Take `CCCCCCCCCCCCCCCC(=O)N[C@@H](CCC(=O)NCCCC[C@H](NC(=O)[C@H](CO)NC(=O)[C@@H]1CCCN1C(=O)[C@@H]1CCCN1C(=O)[C@@H]1CCCN1C(=O)[C@H](C)NC(=O)CNC(=O)[C@H](CO)NC(=O)[C@H](CO)NC(=O)[C@@H]1CCCN1C(=O)CNC(=O)CNC(=O)[C@H](C)NC(=O)[C@H](CC(C)C)NC(=O)[C@H](CC(C)C)NC(=O)[C@H](Cc1c[nH]c2ccccc12)NC(=O)[C@H](CC(N)=O)NC(=O)[C@@H](NC(=O)[C@H](Cc1ccccc1)NC(=O)[C@H](CCC(=O)O)NC(=O)C(C)(C)NC(=O)[C@H](C)NC(=O)[C@H](C)NC(=O)[C@H](CCC(N)=O)NC(=O)[C@H](CCCCN)NC(=O)[C@H](CC(=O)O)NC(=O)[C@H](CC(C)C)NC(=O)[C@H](Cc1ccc(O)cc1)NC(=O)[C@@H](NC(=O)[C@H](CO)NC(=O)[C@H](Cc1ccc(O)cc1)NC(=O)[C@H](CC(=O)O)NC(=O)[C@H](CO)NC(=O)[C@@H](NC(=O)[C@H](Cc1ccccc1)NC(=O)[C@@H](NC(=O)CNC(=O)[C@H](CCC(=O)O)NC(=O)CSCC(=O)NCCN1C(=O)CC2(CCCC2)C1=O)[C@@H](C)O)[C@@H](C)O)[C@@H](C)CC)C(C)C)C(N)=O)C(=O)O` [Compound 102]: the EC50 in experiment [1] (Table 3) was 10 to 100 nM; in experiment [1] (Table 3A), 10 to 100 nM; in experiment [2] (Table 3), 1 to 10 nM; in experiment [2] (Table 3A), 1 to 10 nM. In addition, the maximal effect (Emax) stood at 34% in experiment [1] (Table 3), 34% in experiment [1] (Table 3A), 104% in experiment [2] (Table 3) and 104% in experiment [2] (Table 3A).
With `CCCCCCCCCCCCCCCC(=O)N[C@@H](CCC(=O)NCCCC[C@H](NC(=O)[C@H](CO)NC(=O)[C@@H]1CCCN1C(=O)[C@@H]1CCCN1C(=O)[C@@H]1CCCN1C(=O)[C@H](C)NC(=O)CNC(=O)[C@H](CO)NC(=O)[C@H](CO)NC(=O)[C@@H]1CCCN1C(=O)CNC(=O)CNC(=O)[C@H](C)NC(=O)[C@H](CC(C)C)NC(=O)[C@H](CC(C)C)NC(=O)[C@H](Cc1c[nH]c2ccccc12)NC(=O)[C@H](CC(N)=O)NC(=O)[C@@H](NC(=O)[C@H](Cc1ccccc1)NC(=O)[C@H](CCC(=O)O)NC(=O)C(C)(C)NC(=O)[C@H](C)NC(=O)[C@H](C)NC(=O)[C@H](CCC(N)=O)NC(=O)[C@H](CCCCN)NC(=O)[C@H](CC(=O)O)NC(=O)[C@H](CC(C)C)NC(=O)[C@H](Cc1ccc(O)cc1)NC(=O)[C@@H](NC(=O)[C@H](CO)NC(=O)[C@H](Cc1ccc(O)cc1)NC(=O)[C@H](CC(=O)O)NC(=O)[C@H](CO)NC(=O)[C@@H](NC(=O)[C@H](Cc1ccccc1)NC(=O)[C@@H](NC(=O)CNC(=O)[C@H](CCC(=O)O)NC(=O)CSCC(=O)NCCN1C(=O)[C@H]2CCC[C@H]2C1=O)[C@@H](C)O)[C@@H](C)O)[C@@H](C)CC)C(C)C)C(N)=O)C(=O)O` [Compound 103], the EC50 in experiment [1] (Table 3) lay in the range of 1 to 10 nM; in experiment [1] (Table 3A), 1 to 10 nM; in experiment [2] (Table 3) it was 10 to 100 nM; in experiment [2] (Table 3A), 10 to 100 nM. For the same compound, the maximal effect (Emax) in experiment [1] (Table 3) was 68%; in experiment [1] (Table 3A) it was 68%; in experiment [2] (Table 3), 95%; in experiment [2] (Table 3A), 95%.
In the case of `CC[C@H](C)[C@H](NC(=O)[C@H](CO)NC(=O)[C@H](Cc1ccc(O)cc1)NC(=O)[C@H](CC(=O)O)NC(=O)[C@H](CO)NC(=O)[C@@H](NC(=O)[C@H](Cc1ccccc1)NC(=O)[C@@H](NC(=O)CNC(=O)[C@H](CCC(=O)O)NC(=O)CSCC(=O)NCCN1C(=O)CCc2cccnc21)[C@@H](C)O)[C@@H](C)O)C(=O)N[C@@H](Cc1ccc(O)cc1)C(=O)N[C@@H](CC(C)C)C(=O)N[C@@H](CC(=O)O)C(=O)N[C@@H](CCCCN)C(=O)N[C@@H](CCC(N)=O)C(=O)N[C@@H](C)C(=O)N[C@@H](C)C(=O)NC(C)(C)C(=O)N[C@@H](CCC(=O)O)C(=O)N[C@@H](Cc1ccccc1)C(=O)N[C@H](C(=O)N[C@@H](CC(N)=O)C(=O)N[C@@H](Cc1c[nH]c2ccccc12)C(=O)N[C@@H](CC(C)C)C(=O)N[C@@H](CC(C)C)C(=O)N[C@@H](C)C(=O)NCC(=O)NCC(=O)N1CCC[C@H]1C(=O)N[C@@H](CO)C(=O)N[C@@H](CO)C(=O)NCC(=O)N[C@@H](C)C(=O)N1CCC[C@H]1C(=O)N1CCC[C@H]1C(=O)N1CCC[C@H]1C(=O)N[C@@H](CO)C(=O)N[C@@H](CCCCN)C(N)=O)C(C)C` [Compound 106], the EC50 in experiment [1] (Table 3), in experiment [1] (Table 3A), in experiment [2] (Table 3) and in experiment [2] (Table 3A) was 10 to 100 nM throughout. Further, the Emax in experiment [1] (Table 3) is 37%; in experiment [1] (Table 3A), 37%; in experiment [2] (Table 3), 95%; in experiment [2] (Table 3A), 95%.
